Reference: patent US12594258B2, “Inhibitors of MHC-I Nef downmodulation for treating HIV” (priority 2019, dated 2026)

How the values were obtained:
HIV Nef = test: Nef activity in HIV-infected CD4+ T cells treated with plasma from CMA-injected mice; type: cell-based; details: plasma 30 minutes after injection, diluted 1:20
Experimental: FIG. 8F is a summary graph of flow cytometric data from experiments as in FIG. 1. Blood plasma was isolated from mice 30 minutes after injection with CMA, and CMA concentration was determined by mass spectrometry. Primary CD4+ T cells infected with HIV as in FIG. 1 were treated with 5% plasma from control mice spiked with known concentrations of CMA (standard curve) or with plasma from the CMA-injected mice diluted 1:20. Nef activity in cells receiving plasma from treated mice was compared to the standard curve based on the concentration of CMA as determined by mass spectrometry.
(§1) Mouse in vivo Assays. To further examine the tolerability of CMA, preliminary studies were performed in two groups of mice injected with different doses of CMA every other day for 18 days (FIG. 8A). […] In a separate experiment, plasma harvested from treated mice inhibited Nef in our in vitro assay (FIG. 8F). Taken together, these promising preliminary studies provide evidence that CMA is both efficacious and tolerable in vivo.

[1] = system: ARF-1:AP-1:Nef:MHC-I complex; test: Differential scanning fluorimetry (DSF) thermal stability assay; type: binding; details: 1-hour incubation, compared to solvent control
Description: The His6- and GST-tagged AP-1 core, mouse AP1M1 (157-423) (referred as μ1-CTD), human Arf1 (17-181)-Q71L, human MHC-I (338-365)-NL4-3 Nef, HIV-1 NL4-3 Nef constructs and protein purification were previously described. For GST pull down assay, codon-optimized human MHC-I (338-365) was subcloned into pGST parallel2 vector using BamHI/Xhol sites, fused an N-terminal GST tag and a TEV cleavage site. PCR encoding HIV-1 Nef or SlVsmm Nef fused with GFP was subcloned into LIC 2BT vector (Macrolab), expressed as a TEV-cleavable N-terminal His6 tag and C-terminal uncleavable GFP tag.
Recombinant AP-1 core was mixed with Arf1-GTP and MHC-I-Nef at the molar ratio of 1:4:6, then incubated at 4° C. overnight. […]
DSF assays were performed using a Stratagene Mx3000P RT-PCR (Stratagene, La Jolla, CA) to monitor protein unfolding by the florescence increasing of SYPRO Orang (Invitrogen, Carlsbad, Calif.). […] The Fluorescent intensity was measured using the SYBR green filter over the temperature range of 25 to 90° C. in 1 degree/min increments. After subtracting fluorescence from DMSO control reaction without protein, the average fluorescent intensities were plotted as a function of temperature. […] The fluorescence intensity (before post-peak region) was fitted to Boltzmann equation to obtain melting temperature (Tm).

CD4+ T cells = test: Cell cycle analysis of CD4+ T cells; type: cell-based, human; details: 0.5 nM
[2] = CMA concentration in mouse plasma and lymph nodes by mass spectrometry; type: in vivo, mice; details: 2 hours after the final dose
Experimental: (§2) FIG. 8A is a schematic representation of experiments for FIG. 8B-D. Five mice per group received injections of CMA every 2 days for 10 doses. Blood plasma and lymph nodes were harvested from mice sacrificed 2 hours after the final injection.
FIG. 8D is a summary graph of mass spectrometry data quantifying the concentration of CMA in blood plasma from mice in each Group A and Group B.
FIG. 8E is a summary graph of mass spectrometry data quantifying the concentration of CMA in lymph nodes from mice in each Group A and Group B. Points represent the 5 individual mice within each group. LOD=limit of detection. Open circles represent samples with CMA below the limit of detection.
as §1

[3] = system: lysosome neutralization in primary CD4+ T cells; test: Lysotracker Red flow cytometry assay in primary CD4+ T cells; type: cell-based, human
Experimental: Cells were treated with plecomacrolides at a density of 1×10^6 cells/mL for 24 hours, then treated with 100 nM LysoTracker Red DND-99 (Fisher, L7528) in PBS at a density of 1×10^6 cells/mL for 1 hour at 37° C., washed twice in PBS, and fixed in 2% PFA before flow cytometric analysis on a BioRad Ze5 flow cytometer.
Lysotracker Flow Cytometry Assay. Cells were treated with plecomacrolides at a density of 1×10^6 cells per milliliter for 24 h, and then treated with 100 nM LysoTracker Red DND-99 in phosphate-buffered saline (PBS) at a density of 1×10^6 cells per milliliter for 1 h at 37° C., washed twice in PBS, and fixed in 2% paraformaldehyde (PFA) before flow cytometric analysis on a flow cytometer.

[4] = Mouse in vivo tolerability; design: species or system mice
Experimental: as §2, §1

SMILES: C/C=C/[C@H]1O[C@@](O)([C@@H](C)[C@H](O)[C@H](C)[C@H]2OC(=O)/C(OC)=C/C(C)=C/[C@@H](C)[C@@H](O)[C@@H](CC)[C@@H](O)[C@H](C)C/C(C)=C/C=C/[C@@H]2OC)C[C@@H](O[C@H]2C[C@@H](O)[C@H](OC(N)=O)[C@@H](C)O2)[C@@H]1C [CMA, concanamycin A]
- Nef inhibition by plasma harvested from treated mice (HIV Nef): inhibited Nef
- change in Tm of complex components [1]: No significant changes in Tm
- decrease in cells in G2/M (CD4+ T cells): not statistically significant
- increase in the proportion of cells in S phase compared to solvent control (CD4+ T cells): 1.15 fold
- drug concentrations in plasma and lymph nodes [2]: higher than those required to counteract Nef activity in vitro
- difference between EC50 for lysosome neutralization and EC50 for Nef inhibition [3]: 27 fold
- EC50 ([3]; 24 hours): 1.9 nM
- toxicity based on behavior, fur and weight loss ([4]; two doses, injected every other day for 18 days): Neither dose showed toxicity
- body mass ([4]; weighed prior to each dose): no loss in body mass and no dose effect
